Columns and labels:
[1] = test system: colon, pancreatic, gastric, lung and skin cancer cell lines; assay: 3-days CellTiter-Glo viability assay, panel of different human cancer cell lines; format: cell-based; conditions: 133 nM; 11 cell lines (Example 41)
[2] = test system: BxPC-3 pancreatic cancer cells; assay: Caspase-Glo 3/7 assay, BxPC-3; format: cell-based, human; conditions: 26.6 nM; 1, 2, 4 to 6 hours

With “TRAIL: natural DR5 ligand, recombinant human TRAIL/APO-2L” the “killing of human cancer cell lines” value [1] was “show killing of human cancer target cell lines originating from different indications” and the caspase-3/7 activation [2] was “more rapid and more potent caspase-3/7 activation”.
